{"source": "patent US11596716B2", "about": "“Compounds and matrices for use in bone growth and repair” (Human BioMolecular Research Institute, priority 2013, dated 2023)", "key": {"hMSCs [1]": {"system": "hMSCs", "assay": "TLR4/TLR3 mRNA expression ratio by qPCR in hMSCs", "format": "cell-based, human", "conditions": "500 nM, 8 days", "from_the_text": "TLRs are modulators of hMSC differentiation. TLRs (TLR1-10) mRNA could be detected by qPCR in hMSCs. TLR4 is a biomarker for osteogenesis and TLR3 is a biomarker for adipogenesis. […]"}, "hMSCs [2]": {"system": "hMSCs", "assay": "Transwell migration of hMSCs to calcium phosphate matrix", "format": "cell-based, human", "experimental": "Human MSC migration to the site of bone injury is an important part of the repair process. […] After 8 hrs, compounds were washed off the cells and cells placed in a traditional transwell migration system. The top reservoir contained serum-free DMEM and the bottom reservoir contained DMEM plus 2% FBS. After incubation overnight, non-migrated cells were removed, migrated cells (stuck in the bottom chamber) were then fixed with 70% EtOH (40 mins) and total migrated cells were counted under a microscope after staining with 1 mg/mL of crystal violet (1 hr). hMSCs treated with compound 2 (500 nM, 8 hr) induced a 10-fold greater cell migration to the matrix than DMSO-pre-treated cells under the conditions described above. In a separate experiment, matrix that was pre-coated with compound 4 (as prepared in Example 5) was placed in the bottom chamber and migration of hMSCs from the top chamber was evaluated. Compound 4-coated matrix induced a 2-fold increase in cell migration to the matrix compared to DMSO-treated cells.\nhMSC migration was analyzed by using calcium phosphate matrix that had been pre-adsorbed with compounds 1 or 2 (500 nM, as described in Example 5) and studied in the transwell system (2% serum, described above). Compound 1 and 2 induced 3.5-fold and 1.9-fold more cell migration than non-coated ceramic. While non-limiting, these examples show the utility of the approach for increased cell migration and localization to the calcium phosphate ceramic matrix when compounds of the disclosure are present. Use of compounds of Formula II, IV, and VI to pre-coat the ceramic and also pretreat the cells is also of utility."}, "Wnt transcription": {"system": "Wnt transcription", "assay": "WNT transcriptional reporter assay (Super(8×)TOPflash luciferase, HEK293T cells)", "format": "cell-based", "conditions": "Homo sapiens, HEK-293T, Wnt3A-expressing vector, 20 hrs, relative to cells treated with DMSO alone, read-out: Wnt transcription potency", "from_the_text": "Commercially available Super(8×)TOPflash vector driven by a (7×) TCF-firefly luciferase response element was transiently transfected into HEK293T cells, together with a TK-driven Renilla luciferase plasmid as an internal control to normalize the luminescence signal and a Wnt3A-expressing vector as the source of pathway activation. HEK293T cells were transfected with plasmids in DMEM plus 10% fetal bovine serum (FBS) for 8 hr, replated to 96-well plates in DMEM plus 10% FBS followed by treatment with compounds (1.6 nM to 5 M) (DMSO final concentration is 0.5%) for 20 hrs. Firefly and Renilla luciferase activities were measured and normalized by the Renilla luciferase values."}, "hMSCs [3]": {"system": "hMSCs", "assay": "Alcian Blue staining (chondrogenesis) in hMSCs", "format": "cell-based, human", "conditions": "25 days; for effect on chondrogenesis, densitometry of cell culture images: 500 nM, TCP 5 mg/mL; for chondrogenesis (Alcian Blue staining) compared to vehicle-treated hMSCs: presence or absence of matrix", "experimental": "Alcian Blue Staining: Alcian Blue staining was used to stain for the presence of chondrocytes. Alcian Blue solution (1% wt/volume, acetic acid, pH 2.5). hMSCs were cultured as described above for the Alizarin Red S Staining assay (Ex. 7) in 48-well plates. After 25 days of cell culture, cells were fixed with 4% formaldehyde (40 mins) at room temperature, stained for 1 hr followed by washing with dH2O (1 mL) until water was clear (without blue elutes). Cell culture images were taken under a microscope and quantified by densitometry."}, "hMSCs [4]": {"system": "hMSCs", "assay": "qPCR of target gene mRNA expression in hMSCs", "format": "cell-based, human", "experimental": "qPCR detection of osteogenic markers: Cells were cultured with compound in the presence or absence of matrix as described above, but using 96-well plate format. Total RNA was extracted from cells (as above) using Trizol. cDNA was made using 750 ng of total RNA with Bio-Rad iscript kit and was diluted 20-fold before being used for qPCR. qPCR was conducted under the following conditions: 95° C., 2 min; 95° C., 10 s and 60° C., 45 s for 40 cycles; 60° C. for 71 cycles for melt curve. qPCR results were analyzed by the ΔΔCt method. 18s rRNA was used as an internal standard. This protocol was applied to hMSC and E15 cells.\nRunx2 and BMP-2 are osteogenic markers; Axin2, Wnt3a, and Sox 9 are Wnt-inducible gene markers.\nThe assay for mRNA expression followed the same procedure with hMSCs as described for C2C12 cells (Example 7)."}, "hMSCs [5]": {"system": "hMSCs", "assay": "Oil Red O staining (adipogenesis) in hMSCs", "format": "cell-based, human", "conditions": "for effect on adipogenesis, densitometry of cell culture images: 500 nM every 48 hr for 25 days, TCP 5 mg/mL; for adipogenesis (Oil Red O staining) compared to vehicle-treated hMSCs: presence or absence of matrix, 25 days", "experimental": "Oil Red O Staining: Oil Red O (ORO, 1-(2,5-dimethyl-4-(2-5-dimethylphenyl) phenyldiazenyl) azonapthalen-2-ol) was used to stain for the presence of adipocytes. An ORO solution was prepared to afford a 0.03% final concentration in dH2O. hMSCs were cultured as described above for Alizarin Red Staining (Example 7) in 48-well plates. On day 25 of cell incubation, cells were fixed with 4% formaldehyde for 40 mins at room temperature. Cells were stained for 1 hr followed by washes with dH2O (1 mL) until the wash water was clear (without red elutes). Cell culture images were taken under a microscope and quantified by densitometry."}, "[6]": {"conditions": "compound 500 nM, matrix 5 mg/mL, 3 days"}}, "note": "Values joined by “and” are separate entries in the source; they are usually repeats but may differ in a detail not shown here. Identical values can stand only once.", "data": [{"smiles": "CC(=O)N1c2ccc(C)cc2[C@H](Nc2ccc(C)cc2)C[C@@H]1C", "note": "(relative stereo) [Compound 1, cis-1-acetyl-2,6-dimethyl-N-(p-methylphenyl)-1,2,3,4-tetrahydroquinolin-4-amine]", "values": [{"measurement": "TLR4/TLR3 ratio, compound alone", "setting": "hMSCs [1]", "value": "modest increase"}, {"measurement": "cell migration to matrix pre-adsorbed with compound versus non-coated ceramic", "setting": "hMSCs [2]; 500 nM, transwell, 2% serum", "value": 3.5, "unit": "fold"}, {"measurement": "EC50", "setting": "Wnt transcription", "value": "< 15", "unit": "nM"}]}, {"smiles": "CC(C)[C@H](N)C(=O)Oc1ccc(C=CC(=O)C=C(O)C=Cc2ccc(OC(=O)[C@@H](N)C(C)C)cc2)cc1", "note": "[Compound 3, (2S,2′S)—O,O′-(3-hydroxy-5-oxohepta-1,3,6-triene-1,7-diyl)bis(4,1-phenylene) bis(2-amino-3-methylbutanoate)]", "values": [{"measurement": "TLR4/TLR3 ratio, compound alone", "setting": "hMSCs [1]", "value": "modest increase"}, {"measurement": "effect on chondrogenesis, densitometry of cell culture images", "setting": "hMSCs [3]", "value": "modestly inhibitory on chondrogenesis"}, {"measurement": "chondrogenesis (Alcian Blue staining) compared to vehicle-treated hMSCs", "setting": "hMSCs [3]", "value": "no increase in chondrogenesis"}, {"measurement": "Collagen 1 mRNA Fold-Change +/− SD, −matrix", "setting": "hMSCs [4]; 500 nM, 8 days", "value": "1.5 fold and 1.5 ± 0.2 fold"}, {"measurement": "Osteocalcin mRNA Fold-Change +/− SD, −matrix", "setting": "hMSCs [4]; 500 nM, 8 days", "value": "0.5 ± 0.1", "unit": "fold"}, {"measurement": "VDR mRNA Fold-Change +/− SD, −matrix", "setting": "hMSCs [4]; 500 nM, 8 days", "value": "5.0 ± 0.5", "unit": "fold"}, {"measurement": "decrease of Sox9 expression", "setting": "hMSCs [4]; 500 nM, matrix 5 mg/mL, 3 days", "value": 40, "unit": "%"}, {"measurement": "decrease of Wnt repressor gene Axin2 expression", "setting": "hMSCs [4]; 500 nM, matrix 5 mg/mL, 3 days", "value": 80, "unit": "%"}, {"measurement": "ALP mRNA Fold-Change +/− SD, +matrix", "setting": "hMSCs [4]; 500 nM, matrix 5 mg/mL, 8 days", "value": "55 fold and 55.0 ± 5.0 fold"}, {"measurement": "Collagen 1 mRNA Fold-Change +/− SD, +matrix", "setting": "hMSCs [4]; 500 nM, matrix 5 mg/mL, 8 days", "value": "1.8 ± 0.2", "unit": "fold"}, {"measurement": "Osteocalcin mRNA Fold-Change +/− SD, +matrix", "setting": "hMSCs [4]; 500 nM, matrix 5 mg/mL, 8 days", "value": "5.2 ± 0.5", "unit": "fold"}, {"measurement": "VDR mRNA Fold-Change +/− SD, +matrix", "setting": "hMSCs [4]; 500 nM, matrix 5 mg/mL, 8 days", "value": "45 fold and 45.0 ± 5.0 fold"}, {"measurement": "BMP-2 mRNA fold-changes +/− SD, −matrix", "setting": "hMSCs [4]; compound 500 nM, 3 days", "value": "2.6 ± 0.2", "unit": "fold"}, {"measurement": "Runx2 mRNA fold-changes +/− SD, −matrix", "setting": "hMSCs [4]; compound 500 nM, 3 days", "value": "101.3 ± 10.0", "unit": "fold"}, {"measurement": "Sox9 mRNA fold-changes +/− SD, −matrix", "setting": "hMSCs [4]; compound 500 nM, 3 days", "value": "0.1 ± 0.01", "unit": "fold"}, {"measurement": "Wnt3a mRNA fold-changes +/− SD, −matrix", "setting": "hMSCs [4]; compound 500 nM, 3 days", "value": "1 ± 0.1", "unit": "fold"}, {"measurement": "Wnt5a mRNA fold-changes +/− SD, −matrix", "setting": "hMSCs [4]; compound 500 nM, 3 days", "value": "1 ± 0.1", "unit": "fold"}, {"measurement": "Axin2 mRNA fold-changes +/− SD, +matrix", "setting": "hMSCs [4]; [6]", "value": "0.2 ± 0.02", "unit": "fold"}, {"measurement": "BMP-2 mRNA fold-changes +/− SD, +matrix", "setting": "hMSCs [4]; [6]", "value": "7.5 fold and 7.5 ± 0.7 fold"}, {"measurement": "Runx2 mRNA fold-changes +/− SD, +matrix", "setting": "hMSCs [4]; [6]", "value": "8.2 fold and 8.2 ± 0.8 fold"}, {"measurement": "Sox9 mRNA fold-changes +/− SD, +matrix", "setting": "hMSCs [4]; [6]", "value": "0.6 ± 0.1", "unit": "fold"}, {"measurement": "Wnt3a mRNA fold-changes +/− SD, +matrix", "setting": "hMSCs [4]; [6]", "value": "82.4 fold and 82.4 ± 8.0 fold"}, {"measurement": "Wnt5a mRNA fold-changes +/− SD, +matrix", "setting": "hMSCs [4]; [6]", "value": "6.3 fold and 6.3 ± 0.6 fold"}, {"measurement": "effect on adipogenesis, densitometry of cell culture images", "setting": "hMSCs [5]", "value": "modestly inhibitory to adipogenesis"}, {"measurement": "adipogenesis (Oil Red O staining) compared to vehicle-treated hMSCs", "setting": "hMSCs [5]", "value": "no increase in adipogenesis"}]}, {"smiles": "CC(C)[C@H](N)C(=O)Oc1ccc(/C=C/C(O)=C2\\CCC/C(=C\\c3ccc(OC(=O)[C@@H](N)C(C)C)cc3)C2=O)cc1", "note": "[Compound 4, 4-((1E,3Z)-3-(3-((E)-4-((L-valyl)oxy)benzylidene)-2-oxocyclohexylidene)-3-hydroxyprop-1-en-1-yl)phenyl L-valinate]", "values": [{"measurement": "cell migration to compound-coated matrix compared to DMSO-treated cells", "setting": "hMSCs [2]; matrix pre-coated with compound in bottom chamber", "value": 2, "unit": "fold"}, {"measurement": "effect on chondrogenesis, densitometry of cell culture images", "setting": "hMSCs [3]", "value": "modestly inhibitory on chondrogenesis"}, {"measurement": "chondrogenesis (Alcian Blue staining) compared to vehicle-treated hMSCs", "setting": "hMSCs [3]", "value": "no increase in chondrogenesis"}, {"measurement": "effect on adipogenesis, densitometry of cell culture images", "setting": "hMSCs [5]", "value": "modestly inhibitory to adipogenesis"}, {"measurement": "adipogenesis (Oil Red O staining) compared to vehicle-treated hMSCs", "setting": "hMSCs [5]", "value": "no increase in adipogenesis"}]}]}
